Results: patent US10781224B2, “Bis(oxymethyl)phosphinic acid and biogenic metal salts thereof as regulators of plant growth and development” (priority 2016, dated 2020)

What was measured:
Assay type in all cases: in vivo
[1] = tested on: winter wheat (Vershin variety); assay: Winter wheat seed treatment with BHMPA salts: germinating power (length and mass of roots and sprouts)
Procedure, shortened: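 Seeds (50 per Petri dish on two layers of filter paper) soaked 1 h in BHMPA or its Ca, Mg, Na, Co, Mn, Cu or Zn salts at 1·10^−6-1·10^−12%, with water controls. Germination energy read on day 4, germination on day 8 (wheat) or day 7 (rice, corn), as % means of four replicates. Germinating power taken as root and sprout length plus wet and dry mass per 100 seedlings.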

[2] = tested on: rice (Diamant variety); assay: Rice seed treatment with BHMPA salts: germination energy and germination rate
Procedure, shortened: (§1)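 Corn, winter wheat and rice seeds (50 per dish, on filter paper) were soaked for 1 h in BHMPA or its metal salts at 1·10^−6-1·10^−12%, with water as control. Germination energy was read on day 4 and germination rate on day 8 for wheat and day 7 for rice and corn, following GOST 12038-84, as the mean of four replicates.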

[3] = tested on: corn (Krasnodar 385 MV variety); assay: Corn seed treatment with BHMPA salts: germination energy and germination rate
Procedure, shortened: as §1

[4] = comparative study, 1·10^−9% solution
[5] = rice seed treatment, solution 1 · 10^−11%
[6] = seed treatment, concentration 1 · 10^−6%
[7] = seed treatment, concentration 1 · 10^−7%
[8] = seed treatment, concentration 1 · 10^−8%
[9] = seed treatment, concentration 1 · 10^−9%
[10] = seed treatment, concentration 1 · 10^−10%
[11] = seed treatment, concentration 1 · 10^−11%
[12] = seed treatment, concentration 1 · 10^−12%
[13] = comparative study vs Melaphen, 1·10^−10% solution

O=P([O-])(CO)CO.[Na+] [Na-salt, Sodium BHMPA Salt]
effectiveness on germinating power ([1]; 1·10^−6% and 1·10^−12% solutions): marginally effective | Length, root ([1]; 1·10^−6% solution): 5.0 cm | Length, root, + % to control ([1]; 1·10^−6% solution): −5.7% | Length, sprout ([1]; 1·10^−6% solution): 6.0 cm | Length, sprout, + % to control ([1]; 1·10^−6% solution): −1.6% | Mass, dry, root ([1]; 1·10^−6% solution): 0.37 g/100 plantlings | Mass, dry, root, + % to control ([1]; 1·10^−6% solution): −10% | Mass, dry, sprout ([1]; 1·10^−6% solution): 0.54 g/100 plantlings | Mass, dry, sprout, + % to control ([1]; 1·10^−6% solution): −3.6% | Mass, wet, root ([1]; 1·10^−6% solution): 2.35 g/100 plantlings | Mass, wet, root, + % to control ([1]; 1·10^−6% solution): −3.7% | Mass, wet, sprout ([1]; 1·10^−6% solution): 4.51 g/100 plantlings | Mass, wet, sprout, + % to control ([1]; 1·10^−6% solution): −3.6% | Length, root ([1]; 1·10^−7% solution): 5.3 cm | Length, root, + % to control ([1]; 1·10^−7% solution): 0% | Length, sprout ([1]; 1·10^−7% solution): 6.3 cm | Length, sprout, + % to control ([1]; 1·10^−7% solution): 3.3% | Mass, dry, root ([1]; 1·10^−7% solution): 0.45 g/100 plantlings | Mass, dry, root, + % to control ([1]; 1·10^−7% solution): 10% | Mass, dry, sprout ([1]; 1·10^−7% solution): 0.56 g/100 plantlings | Mass, dry, sprout, + % to control ([1]; 1·10^−7% solution): 0% | Mass, wet, root ([1]; 1·10^−7% solution): 2.58 g/100 plantlings | Mass, wet, root, + % to control ([1]; 1·10^−7% solution): 5.7% | Mass, wet, sprout ([1]; 1·10^−7% solution): 5.03 g/100 plantlings | Mass, wet, sprout, + % to control ([1]; 1·10^−7% solution): 7.5% | Length, root ([1]; 1·10^−8% solution): 5.6 cm | Length, root, + % to control ([1]; 1·10^−8% solution): 5.7% | Length, sprout ([1]; 1·10^−8% solution): 6.7 cm | Length, sprout, + % to control ([1]; 1·10^−8% solution): 10% | Mass, dry, root ([1]; 1·10^−8% solution): 0.47 g/100 plantlings | Mass, dry, root, + % to control ([1]; 1·10^−8% solution): 14.6% | Mass, dry, sprout ([1]; 1·10^−8% solution): 0.63 g/100 plantlings | Mass, dry, sprout, + % to control ([1]; 1·10^−8% solution): 12.5% | Mass, wet, root ([1]; 1·10^−8% solution): 2.73 g/100 plantlings | Mass, wet, root, + % to control ([1]; 1·10^−8% solution): 12% | Mass, wet, sprout ([1]; 1·10^−8% solution): 5.37 g/100 plantlings | Mass, wet, sprout, + % to control ([1]; 1·10^−8% solution): 15% | Length, root ([1]; 1·10^−9% solution): 5.7 cm | Length, root, + % to control ([1]; 1·10^−9% solution): 7.5% | Length, sprout ([1]; 1·10^−9% solution): 6.9 cm | Length, sprout, + % to control ([1]; 1·10^−9% solution): 13% | Mass, dry, root ([1]; 1·10^−9% solution): 0.56 g/100 plantlings | Mass, dry, root, + % to control ([1]; 1·10^−9% solution): 36.5% | Mass, dry, sprout ([1]; 1·10^−9% solution): 0.69 g/100 plantlings | Mass, dry, sprout, + % to control ([1]; 1·10^−9% solution): 23% | Mass, wet, root ([1]; 1·10^−9% solution): 3.21 g/100 plantlings | Mass, wet, root, + % to control ([1]; 1·10^−9% solution): 31.5% | Mass, wet, sprout ([1]; 1·10^−9% solution): 5.41 g/100 plantlings | Mass, wet, sprout, + % to control ([1]; 1·10^−9% solution): 15.6% | Length, root ([1]; 1·10^−10% solution): 5.6 cm | Length, root, + % to control ([1]; 1·10^−10% solution): 5.7% | Length, sprout ([1]; 1·10^−10% solution): 6.5 cm | Length, sprout, + % to control ([1]; 1·10^−10% solution): 6.5% | Mass, dry, root ([1]; 1·10^−10% solution): 0.46 g/100 plantlings | Mass, dry, root, + % to control ([1]; 1·10^−10% solution): 12% | Mass, dry, sprout ([1]; 1·10^−10% solution): 0.61 g/100 plantlings | Mass, dry, sprout, + % to control ([1]; 1·10^−10% solution): 9% | Mass, wet, root ([1]; 1·10^−10% solution): 2.66 g/100 plantlings | Mass, wet, root, + % to control ([1]; 1·10^−10% solution): 9% | Mass, wet, sprout ([1]; 1·10^−10% solution): 5.33 g/100 plantlings | Mass, wet, sprout, + % to control ([1]; 1·10^−10% solution): 14% | Length, root ([1]; 1·10^−11% solution): 5.5 cm | Length, root, + % to control ([1]; 1·10^−11% solution): 3.8% | Length, sprout ([1]; 1·10^−11% solution): 6.4 cm | Length, sprout, + % to control ([1]; 1·10^−11% solution): 5% | Mass, dry, root ([1]; 1·10^−11% solution): 0.43 g/100 plantlings | Mass, dry, root, + % to control ([1]; 1·10^−11% solution): 5% | Mass, dry, sprout ([1]; 1·10^−11% solution): 0.60 g/100 plantlings | Mass, dry, sprout, + % to control ([1]; 1·10^−11% solution): 7% | Mass, wet, root ([1]; 1·10^−11% solution): 2.57 g/100 plantlings | Mass, wet, root, + % to control ([1]; 1·10^−11% solution): 5.3% | Mass, wet, sprout ([1]; 1·10^−11% solution): 5.11 g/100 plantlings | Mass, wet, sprout, + % to control ([1]; 1·10^−11% solution): 9% | Length, root ([1]; 1·10^−12% solution): 5.4 cm | Length, root, + % to control ([1]; 1·10^−12% solution): 2% | Length, sprout ([1]; 1·10^−12% solution): 6.3 cm | Length, sprout, + % to control ([1]; 1·10^−12% solution): 3.3% | Mass, dry, root ([1]; 1·10^−12% solution): 0.42 g/100 plantlings | Mass, dry, root, + % to control ([1]; 1·10^−12% solution): 2% | Mass, dry, sprout ([1]; 1·10^−12% solution): 0.58 g/100 plantlings | Mass, dry, sprout, + % to control ([1]; 1·10^−12% solution): 3.6% | Mass, wet, root ([1]; 1·10^−12% solution): 2.41 g/100 plantlings | Mass, wet, root, + % to control ([1]; 1·10^−12% solution): −1.2% | Mass, wet, sprout ([1]; 1·10^−12% solution): 5.03 g/100 plantlings | Mass, wet, sprout, + % to control ([1]; 1·10^−12% solution): 7.5% | Length, root [1, 4]: 8.7 cm | Length, root, + % to control [1, 4]: 0% | Length, sprout [1, 4]: 6.4 cm | Length, sprout, + % to control [1, 4]: 3% | Mass, dry, root [1, 4]: 0.64 g/100 plantlings | Mass, dry, root, + % to control [1, 4]: 3% | Mass, dry, sprout [1, 4]: 0.53 g/100 plantlings | Mass, dry, sprout, + % to control [1, 4]: 4% | Mass, wet, root [1, 4]: 4.19 g/100 plantlings | Mass, wet, root, + % to control [1, 4]: 16% | Mass, wet, sprout [1, 4]: 4.73 g/100 plantlings | Mass, wet, sprout, + % to control [1, 4]: 19% | Germination energy, % [2, 5]: 85.0% | Germination rate, % [2, 5]: 92.0% | Germination energy ([2]; rice, 1·10^−11% solution): 84.0% | Germination rate ([2]; rice, 1·10^−11% solution): 90.3% | Germination energy [2, 6]: 74.7% | Germination rate [2, 6]: 80.3% | Germination energy [2, 7]: 76.7% | Germination rate [2, 7]: 82.8% | Germination energy [2, 8]: 78.3% | Germination rate [2, 8]: 84.0% | Germination energy [2, 9]: 80.0% | Germination rate [2, 9]: 86.3% | Germination energy [2, 10]: 82.3% | Germination rate [2, 10]: 88.0% | Germination energy [2, 11]: 84.0% | Germination rate [2, 11]: 90.3% | Germination energy [2, 12]: 79.0% | Germination rate [2, 12]: 85.3% | Germination energy ([3]; 1·10^−6% solution): 75.7% | Germination rate ([3]; 1·10^−6% solution): 78.3% | Germination energy ([3]; 1·10^−7% solution): 78.0% | Germination rate ([3]; 1·10^−7% solution): 81.8% | Germination energy ([3]; 1·10^−8% solution): 84.8% | Germination rate ([3]; 1·10^−8% solution): 87.5% | Germination energy ([3]; 1·10^−9% solution): 87.7% | Germination rate ([3]; 1·10^−9% solution): 91.7% | Germination energy ([3]; 1·10^−10% solution): 89.7% | Germination rate ([3]; 1·10^−10% solution): 93.0% | Germination energy ([3]; 1·10^−11% solution): 86.8% | Germination rate ([3]; 1·10^−11% solution): 89.5% | Germination energy ([3]; 1·10^−12% solution): 82.0% | Germination rate ([3]; 1·10^−12% solution): 85.5% | Germination energy [3, 13]: 85.7% | Germination rate [3, 13]: 94.0%
